From ChEMBL document CHEMBL5143752, “Biological Effects of Modifications of the Englerin A Glycolate” (ACS Med Chem Lett, 2022) come the findings set out here.

For series [1], the system named is A498. Description: Growth inhibition of human A498 cells assessed as cell growth inhibition. It counts as functional.
Series [2] relates to UO-31. Kind of series: Growth inhibition of human UO-31 cells assessed as cell growth inhibition. It counts as functional.
The test system of series [3] is RXF 393. Description: Growth inhibition of human RXF 393 cells assessed as inhibition of cell growth. It counts as functional.
The nature of series [4]: Plasma concentration in mouse at 100 mg/kg, po by LC-MS/MS analysis. It counts as ADME, organism-based. The following applies: in vivo.
A short description of series [5]: Acute toxicity in mouse assessed as maximum tolerated dose measured for 24 hrs. As to conditions: in vivo.
Series [6] addresses T1, Short transient receptor potential channel 5 (Homo sapiens) (UniProt Q9UL62).
T1 sequence (whole entry): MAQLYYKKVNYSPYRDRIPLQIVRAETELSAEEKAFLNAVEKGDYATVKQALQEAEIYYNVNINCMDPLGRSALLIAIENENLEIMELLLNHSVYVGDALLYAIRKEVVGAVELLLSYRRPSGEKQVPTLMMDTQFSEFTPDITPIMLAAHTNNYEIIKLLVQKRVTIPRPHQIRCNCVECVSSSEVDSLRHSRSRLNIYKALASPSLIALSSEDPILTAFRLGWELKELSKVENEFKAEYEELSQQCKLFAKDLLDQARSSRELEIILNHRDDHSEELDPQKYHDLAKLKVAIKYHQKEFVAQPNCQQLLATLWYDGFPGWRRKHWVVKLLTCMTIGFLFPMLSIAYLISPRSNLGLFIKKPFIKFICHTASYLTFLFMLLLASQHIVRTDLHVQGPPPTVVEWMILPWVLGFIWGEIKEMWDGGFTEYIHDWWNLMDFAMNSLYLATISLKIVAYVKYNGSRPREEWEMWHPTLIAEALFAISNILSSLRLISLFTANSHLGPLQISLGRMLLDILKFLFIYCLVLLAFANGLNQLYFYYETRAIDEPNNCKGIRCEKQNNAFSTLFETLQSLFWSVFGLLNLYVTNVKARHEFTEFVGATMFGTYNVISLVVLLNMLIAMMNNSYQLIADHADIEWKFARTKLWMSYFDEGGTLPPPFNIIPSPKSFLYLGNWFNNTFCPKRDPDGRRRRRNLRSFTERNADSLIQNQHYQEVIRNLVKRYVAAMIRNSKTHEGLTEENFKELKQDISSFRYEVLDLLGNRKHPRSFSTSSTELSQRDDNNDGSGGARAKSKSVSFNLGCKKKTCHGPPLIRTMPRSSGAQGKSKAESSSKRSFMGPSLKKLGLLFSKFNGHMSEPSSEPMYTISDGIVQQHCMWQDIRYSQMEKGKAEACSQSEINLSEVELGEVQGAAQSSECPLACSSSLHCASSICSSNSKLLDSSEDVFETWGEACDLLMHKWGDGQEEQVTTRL
Kind of series: Agonist activity at human TRPC5 stably expressed in T-REx-293 cells assessed as increase in calcium flux at 10 uM by Fura-2AM dye based fluorescence plate reader assay. The following applies: filed as agonist. It counts as cell-based. (In general: Calcium flux is commonly read through the fluorescence of an indicator in the cells.)

Series [7] has as its target T2, Short transient receptor potential channel 5 (Homo sapiens, UniProt Q9UL62).
T2 sequence (Q9UL62 whole entry): T1 sequence (whole entry)
Description: Agonist activity at human TRPC5 stably expressed in T-REx-293 cells assessed as increase in calcium flux by Fura-2AM dye based fluorescence plate reader assay. It is filed as cell-based.

Series [8] deals with T3, Short transient receptor potential channel 4 (Homo sapiens) (UniProt Q9UBN4).
T3 sequence (whole entry): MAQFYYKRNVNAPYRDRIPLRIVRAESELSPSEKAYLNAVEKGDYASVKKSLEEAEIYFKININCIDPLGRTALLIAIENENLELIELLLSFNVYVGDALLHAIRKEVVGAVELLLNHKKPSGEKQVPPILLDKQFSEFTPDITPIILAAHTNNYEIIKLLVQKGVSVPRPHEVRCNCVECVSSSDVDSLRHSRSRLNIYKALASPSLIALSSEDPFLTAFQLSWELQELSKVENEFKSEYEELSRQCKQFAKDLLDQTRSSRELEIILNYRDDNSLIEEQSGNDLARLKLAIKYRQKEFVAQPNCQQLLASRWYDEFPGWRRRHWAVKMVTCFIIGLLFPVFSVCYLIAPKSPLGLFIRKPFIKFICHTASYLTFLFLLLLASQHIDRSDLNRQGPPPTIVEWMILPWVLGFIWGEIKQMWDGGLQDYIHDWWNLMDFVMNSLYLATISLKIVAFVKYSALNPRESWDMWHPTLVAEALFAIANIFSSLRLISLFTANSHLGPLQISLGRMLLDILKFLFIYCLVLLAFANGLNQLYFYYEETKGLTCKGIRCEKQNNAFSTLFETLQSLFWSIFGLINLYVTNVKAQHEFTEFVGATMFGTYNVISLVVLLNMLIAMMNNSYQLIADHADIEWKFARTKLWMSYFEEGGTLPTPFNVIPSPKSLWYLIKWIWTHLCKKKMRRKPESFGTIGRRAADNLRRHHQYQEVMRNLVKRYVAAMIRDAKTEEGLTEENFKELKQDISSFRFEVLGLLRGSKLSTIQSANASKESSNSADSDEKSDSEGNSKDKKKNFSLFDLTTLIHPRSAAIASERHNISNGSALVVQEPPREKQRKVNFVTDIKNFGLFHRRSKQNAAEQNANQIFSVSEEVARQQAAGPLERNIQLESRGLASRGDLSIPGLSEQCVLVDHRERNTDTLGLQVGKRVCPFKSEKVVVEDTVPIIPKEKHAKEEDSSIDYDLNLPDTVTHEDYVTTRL
Description: Agonist activity at human TRPC4 stably expressed in T-REx-293 cells assessed as increase in calcium flux at 10 uM by Fura-2AM dye based fluorescence plate reader assay. As to conditions: filed as agonist. It is filed as cell-based.

Series [9] addresses T3, Short transient receptor potential channel 4 (Homo sapiens). Description: Agonist activity at human TRPC4 stably expressed in T-REx-293 cells assessed as increase in calcium flux at 10 uM by Fura-2AM dye based fluorescence plate reader assay relative to control. It is filed as cell-based.

Structures are written as SMILES. pEC50: −log10 of the molar value. Active and inactive are the calls of the source. The rule behind the calls is not given here.

The GI50 is the concentration giving 50% growth inhibition. For orientation: MTD means the highest dose tested that stayed within the study's limit of toxicity. For `CC(C)[C@@]12C[C@@H](OC(=O)COC(=O)/C=C/c3ccccc3)[C@@](C)(O1)[C@@H]1CC[C@@H](C)[C@H]1[C@@H]2OC(=O)/C=C/c1ccccc1`, the concentration for 50% growth inhibition (GI50) in series [1] amounted to 44 nM; in series [2], 66 nM; in series [3], 138 nM. The same compound had a Cp in series [4] of 38.7 ng/mL. The maximal tolerated dose (MTD) at 24 h in [5] is 1 mg/kg.
For the compound `CC(C)[C@@]12C[C@@H](OC(=O)[C@H]3CO3)[C@@](C)(O1)[C@@H]1CC[C@@H](C)[C@H]1[C@@H]2OC(=O)/C=C/c1ccccc1`, the results for the GI50 in series [1], in series [2] and in series [3] were 224 nM, 204 nM and 170 nM, respectively.
The matching figures for `CC(C)[C@@]12C[C@@H](OS(C)(=O)=O)[C@@](C)(O1)[C@@H]1CC[C@@H](C)[C@H]1[C@@H]2OC(=O)/C=C/c1ccccc1`: 145 nM, 389 nM and 427 nM.
With `CCCCCC(=O)OCC(=O)O[C@@H]1C[C@]2(C(C)C)O[C@@]1(C)[C@@H]1CC[C@@H](C)[C@H]1[C@@H]2OC(=O)/C=C/c1ccccc1`, the GI50 in series [1] stood at 52 nM; in series [2], 41 nM; in series [3] it was 126 nM. In series [6], the result was Active. In series [5], the maximal tolerated dose (MTD) at 24 h worked out at 0.4 mg/kg.
What is called pEC50 is the negative decadic logarithm of the EC50, by convention in mol/L. Regarding `CC(=O)OCC(=O)O[C@@H]1C[C@]2(C(C)C)O[C@@]1(C)[C@@H]1CC[C@@H](C)[C@H]1[C@@H]2OC(=O)/C=C/c1ccccc1`, the GI50 in series [1] worked out at 40 nM; in series [2], 34 nM; in series [3] it was 209 nM. In addition, in [7], the pEC50 is 6.32. The result in series [8] was Active. Moreover, in series [5], the maximal tolerated dose (MTD) at 24 h came to 0.2 mg/kg.
As for `CC(C)[C@@]12C[C@@H](OC(=O)[C@@H]3CO3)[C@@](C)(O1)[C@@H]1CC[C@@H](C)[C@H]1[C@@H]2OC(=O)/C=C/c1ccccc1`, the GI50 in [1] was 2040 nM; in series [2], 1780 nM; in [3] it was 7900 nM.
`CC(C)[C@@]12C[C@@H](OC(=O)COC(=O)c3ccccc3)[C@@](C)(O1)[C@@H]1CC[C@@H](C)[C@H]1[C@@H]2OC(=O)/C=C/c1ccccc1`: the GI50 in series [1] came to 155 nM; in series [2], 115 nM; in series [3] it was 282 nM. Further, the MTD at 24 h in [5] stood at 0.4 mg/kg.
With `CC(C)[C@@]12C[C@@H](OC(=O)COS(C)(=O)=O)[C@@](C)(O1)[C@@H]1CC[C@@H](C)[C@H]1[C@@H]2OC(=O)/C=C/c1ccccc1`, the 50% growth inhibitory concentration (GI50) worked out at 1300 nM in [1], 1400 nM in [2] and 1100 nM in [3].
`CC(C)[C@@]12C[C@@H](OC(=O)/C=C/c3ccccc3)[C@@](C)(O1)[C@@H]1CC[C@@H](C)[C@H]1[C@@H]2OC(=O)/C=C/c1ccccc1`: the GI50 in [1], in series [2] and in series [3] was more than 100000 nM throughout.
For `CC(C)=CC(=O)OCC(=O)O[C@@H]1C[C@]2(C(C)C)O[C@@]1(C)[C@@H]1CC[C@@H](C)[C@H]1[C@@H]2OC(=O)/C=C/c1ccccc1`, the concentration for 50% growth inhibition (GI50) in series [1] worked out at 178 nM; in series [2] it was 240 nM; in series [3], 380 nM. Further, the negative-log EC50 (pEC50) in [7] is 5.90. Also, in series [9], the Activity is 15%. Also, the Cp in series [4] is 1.5 ng/mL. Moreover, the maximum tolerated dose (MTD) at 24 h in series [5] turned out to be 0.4 mg/kg.
